# Assay results taken from PMC10229426, “An optimized bioluminescent substrate for non-invasive imaging in the brain” (Nature Chemical Biology, 2023).
# Values joined by “and” are separate entries in the source; they are usually repeats but may differ in a detail not shown here. Equal entries are not always repeated. “Also recorded” adds a separate entry of the source. Where two headings read alike, the source gives them in different places.
# Columns and labels:
# [1] = design: method as in doi:10.1134/S1068162018020085; settings: cited from earlier work
# Antares luciferase = biological target: T1, Antares luciferase (Oplophorus gracilirostris, UniProt Q9GV45, A31E/A60N/A81I/F95D/I117V/K70R/L54V/L99Q/M102K/N193R/P142E/Q151K/Q38R/Q45L/V71I/Y165I); assay: Non-invasive detection of Antares in the liver (Alb-cre driver); type: in vivo, mouse; settings: 1.3 µmol i.p.
# T1 construct: expressed in transfected cells; host or cells: transgenic mice with CAG-LSL-Antares at the H11 locus, crossed to Cre driver lines (neurons or liver)
# From the text: Transgenic reporter mice with LSL-CAG-luciferase (Antares, FLuc or AkaLuc) inserted at the H11 locus (H11P) were generated by φC31-mediated recombination in blastocysts[48] by the Stanford Transgenic, Knockout and Tumor Model Center. For substrate comparisons, 2- to 4-month-old transgenic mice doubly hemizygous for a Camk2a-cre (Jackson Laboratory, 005359), Vgat-IRES-cre (Jackson Laboratory), Vglut2-IRES-cre (Jackson Laboratory, 016963) or Alb-cre (Jackson Laboratory, 003574) driver and a CAG-LSL-Antares, CAG-LSL-AkaLuc or CAG-LSL-FLuc reporter were anesthetized by inhalation of isoflurane for 5 min. An electric shaver was used to remove scalp hair in Camk2a-cre, Vglut2-IRES-cre or Vgat-IRES-cre mice or abdominal hair in Alb-cre mice. Nair depilatory cream (Church and Dwight) was then applied to the shaved area for 1 min, and remaining hair was removed with a piece of sterile gauze. […]
# For mice expressing Antares, indicated amounts of Fz were dissolved in 480 µl of a PEG-300-based formulation consisting of 10% glycerol, 10% ethanol, 10% hydroxypropylcyclodextrin and 35% PEG-300 in water, or indicated amounts of lyophilized Fz analogs with P-407 vehicle were reconstituted in 150–500 µl of DPBS buffer. […] Integrated luminescence was quantified using the Fiji version of the ImageJ program (NIH)[49], with further statistical analysis performed in GraphPad Prism (version 9.0.0).
# [2] = Toxicity in mice: necropsy and histopathology; type: in vivo, C57BL/6 mice; design: key to BMH, brain multifocal hemorrhage score / HN, hepatocellular necrosis score / RTD, renal tubular dilation score / RTDR, renal tubular degeneration and regeneration score: 0: absent; 1: minimal; 2: mild; 3: moderate; 4: severe; key to HMNH, heart myocardial necrosis and hemorrhage score: 0: no lesions; 1: <5% of myocardium affected; 2: 5-10% affected; 3: 10-25% affected; 4: >25% affected; key to SRPHMV, splenic red pulp histiocytosis with microvesicular vacuolation score: 0: no lesions; 1: lesions present; key to LC, Liver capsule score: 0: normal; 1: segmental subcapsular necrosis +/- neutrophilic infiltrate; Total organ score: scale not given here; settings: for toxicity after a single i.p. injection: 4.2 µmol with 20 mg P-407, one injection; for BMH, brain multifocal hemorrhage score / HMNH, heart myocardial necrosis and hemorrhage score / HN, hepatocellular necrosis score / LC, Liver capsule score / RTD, renal tubular dilation score / RTDR, renal tubular degeneration and regeneration score / SRPHMV, splenic red pulp histiocytosis with microvesicular vacuolation score / Total organ score / ∆ weight: individual mice
# Protocol: (§1) Male C57BL/6 mice of 2 months of age were killed by CO2 asphyxiation and cardiac exsanguination. All mice were weighed, and a complete gross examination of the external and internal organs was performed. […] Formalin-fixed tissues were processed routinely, embedded in paraffin, sectioned at 5 μm and stained with hematoxylin and eosin. All slides were blindly evaluated for histologic treatment-related effects (Supplementary Table 1) by a board-certified veterinary pathologist.
# [3] = Toxicity in mice: necropsy and histopathology; type: in vivo, C57BL/6 mice; design: key: 0: absent; 1: minimal; 2: mild; 3: moderate; 4: severe; settings: individual mice
# Protocol: as §1
# [4] = Toxicity in mice: necropsy and histopathology; type: in vivo, C57BL/6 mice; design: key: 0: absent; 1: minimal accumulation; 2: mild accumulation; 3: moderate accumulation; 4: severe accumulation; settings: individual mice
# Protocol: as §1
# T1 sequence (Q9GV45 other isoform, or with tags, fused parts or gaps with the stated changes): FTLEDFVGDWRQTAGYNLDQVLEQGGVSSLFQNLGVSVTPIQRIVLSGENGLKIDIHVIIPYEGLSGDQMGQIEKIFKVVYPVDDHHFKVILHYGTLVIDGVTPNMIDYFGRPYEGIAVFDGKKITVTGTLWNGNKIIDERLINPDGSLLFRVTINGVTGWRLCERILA
structure (smiles),measurement,setting,value
"O=c1c(Cc2ccco2)nc2c(Cc3ccccc3)[nH]c(-c3ccccc3)cn1-2 [Fz, furimazine, reference compound]",toxicity of daily i.v. injection,[1]; 20 µg i.v. per day,minimal toxicity
same,toxicity of daily i.v. injection,[1]; 60 µg (0.16 µmol) i.v. daily for 7 d,caused liver and lung damage
"O=c1c(Cc2ccco2)nc2c(Cc3ccccc3)[nH]c(-c3cccc(F)c3F)cn1-2 [compound 6, cephalofurimazine]","liver signal, 6 versus FFz",Antares luciferase,threefold dimmer than FFz
same,weight loss,"[2]; 1.3 µmol CFz with 12 mg P-407, daily for 3 or 5 d",< 5%
same,effects on organ tissues after daily administration,"[2]; 1.3 µmol CFz with 12 mg P-407, daily i.p. for 3 or 5 d, listed as CFz",mild and well tolerated and Renal lesions were minimal to absent
same,toxicity after three daily i.p. injections,[2]; 4.2 µmol CFz with 20 mg P-407,noticeably toxic to organs
same,toxicity after a single i.p. injection,[2],minimal effects on heart and kidney tissues without weight loss
same,toxicity after a single i.p. injection,[2]; listed as CFz,minimal toxicity
same,"BMH, brain multifocal hemorrhage score","[2]; 1 day, 4.2 µmol, 20 mg P-407",0
same,"HMNH, heart myocardial necrosis and hemorrhage score","[2]; 1 day, 4.2 µmol, 20 mg P-407",1 (<5% of myocardium affected) and 0 (2×)
same,"HN, hepatocellular necrosis score","[2]; 1 day, 4.2 µmol, 20 mg P-407",0
same,"LC, Liver capsule score","[2]; 1 day, 4.2 µmol, 20 mg P-407",0
same,"RTD, renal tubular dilation score","[2]; 1 day, 4.2 µmol, 20 mg P-407",0 and 1 (<5% of tubules affected) (2×)
same,"RTDR, renal tubular degeneration and regeneration score","[2]; 1 day, 4.2 µmol, 20 mg P-407",0 (2×) and 1 (<5% of tubules affected)
same,"SRPHMV, splenic red pulp histiocytosis with microvesicular vacuolation score","[2]; 1 day, 4.2 µmol, 20 mg P-407",0
same,Total organ score,"[2]; 1 day, 4.2 µmol, 20 mg P-407",2 (2×) and 1
same,∆ weight,"[2]; 1 day, 4.2 µmol, 20 mg P-407",–0.7% and +0.3% and +1.4%
same,"BMH, brain multifocal hemorrhage score","[2]; 3 days, 1.3 µmol, 12 mg P-407",0
same,"HMNH, heart myocardial necrosis and hemorrhage score","[2]; 3 days, 1.3 µmol, 12 mg P-407",1 (<5% of myocardium affected)
same,"HN, hepatocellular necrosis score","[2]; 3 days, 1.3 µmol, 12 mg P-407",0 (2×) and 2
same,"LC, Liver capsule score","[2]; 3 days, 1.3 µmol, 12 mg P-407",0
same,"RTD, renal tubular dilation score","[2]; 3 days, 1.3 µmol, 12 mg P-407",1 (<5% of tubules affected) (2×) and 0
same,"RTDR, renal tubular degeneration and regeneration score","[2]; 3 days, 1.3 µmol, 12 mg P-407",1 (<5% of tubules affected)
same,"SRPHMV, splenic red pulp histiocytosis with microvesicular vacuolation score","[2]; 3 days, 1.3 µmol, 12 mg P-407",0
same,Total organ score,"[2]; 3 days, 1.3 µmol, 12 mg P-407",3 and 2 and 5
same,∆ weight,"[2]; 3 days, 1.3 µmol, 12 mg P-407",–2.2%; also recorded: –0.4%; also recorded: –1.1%
same,"BMH, brain multifocal hemorrhage score","[2]; 3 days, 4.2 µmol, 20 mg P-407",0
same,"HMNH, heart myocardial necrosis and hemorrhage score","[2]; 3 days, 4.2 µmol, 20 mg P-407",2 (5-10% affected) (2×) and 1 (<5% of myocardium affected)
same,"HN, hepatocellular necrosis score","[2]; 3 days, 4.2 µmol, 20 mg P-407",0
same,"LC, Liver capsule score","[2]; 3 days, 4.2 µmol, 20 mg P-407",0
same,"RTD, renal tubular dilation score","[2]; 3 days, 4.2 µmol, 20 mg P-407",3 (25%–50% of tubules affected) (2×) and 2 (5%–25% of tubules affected)
same,"RTDR, renal tubular degeneration and regeneration score","[2]; 3 days, 4.2 µmol, 20 mg P-407",3 (25%–50% of tubules affected) and 2 (5%–25% of tubules affected) (2×)
same,"SRPHMV, splenic red pulp histiocytosis with microvesicular vacuolation score","[2]; 3 days, 4.2 µmol, 20 mg P-407",1
same,Total organ score,"[2]; 3 days, 4.2 µmol, 20 mg P-407",9 (2×) and 6
same,∆ weight,"[2]; 3 days, 4.2 µmol, 20 mg P-407",–8.3%; also recorded: –3.7%; also recorded: –3.0%
same,"BMH, brain multifocal hemorrhage score","[2]; 5 days, 1.3 µmol, 12 mg P-407",0
same,"HMNH, heart myocardial necrosis and hemorrhage score","[2]; 5 days, 1.3 µmol, 12 mg P-407",0 (2×) and 1 (<5% of myocardium affected)
same,"HN, hepatocellular necrosis score","[2]; 5 days, 1.3 µmol, 12 mg P-407",0
same,"LC, Liver capsule score","[2]; 5 days, 1.3 µmol, 12 mg P-407",0
same,"RTD, renal tubular dilation score","[2]; 5 days, 1.3 µmol, 12 mg P-407",0
same,"RTDR, renal tubular degeneration and regeneration score","[2]; 5 days, 1.3 µmol, 12 mg P-407",1 (<5% of tubules affected) (2×) and 0
same,"SRPHMV, splenic red pulp histiocytosis with microvesicular vacuolation score","[2]; 5 days, 1.3 µmol, 12 mg P-407",1
same,Total organ score,"[2]; 5 days, 1.3 µmol, 12 mg P-407",1 (2×) and 3
same,∆ weight,"[2]; 5 days, 1.3 µmol, 12 mg P-407",–3.2%; also recorded: –4.6%; also recorded: –1.8%
same,"HPMC, heart perivascular myxomatous change score","[3]; 1 day, 4.2 µmol, 20 mg P-407",0
same,"HT, heart telangiectasia score","[3]; 1 day, 4.2 µmol, 20 mg P-407",0
same,"KCHMV, Kupffer cell hyperplasia and microvesicular vacuolation score","[3]; 1 day, 4.2 µmol, 20 mg P-407",0
same,"HPMC, heart perivascular myxomatous change score","[3]; 3 days, 1.3 µmol, 12 mg P-407",0
same,"HT, heart telangiectasia score","[3]; 3 days, 1.3 µmol, 12 mg P-407",0
same,"KCHMV, Kupffer cell hyperplasia and microvesicular vacuolation score","[3]; 3 days, 1.3 µmol, 12 mg P-407",0
same,"HPMC, heart perivascular myxomatous change score","[3]; 3 days, 4.2 µmol, 20 mg P-407",0
same,"HPMC, heart perivascular myxomatous change score","[3]; 5 days, 1.3 µmol, 12 mg P-407",0
same,"HT, heart telangiectasia score","[3]; 5 days, 1.3 µmol, 12 mg P-407",0
same,"KCHMV, Kupffer cell hyperplasia and microvesicular vacuolation score","[4]; 3 days, 4.2 µmol, 20 mg P-407",2
same,"KCHMV, Kupffer cell hyperplasia and microvesicular vacuolation score","[4]; 5 days, 1.3 µmol, 12 mg P-407",2
